The values that follow come from paper PMC10892423 (Pharmaceutics, 2024).

pIC50: −log10 of the molar value. In brackets after ≈: the same amount, converted by molar mass.

Usually pIC50 stands for the negative decadic logarithm of the IC50, by convention in mol/L. The term MIC denotes the lowest concentration found to suppress growth. Low readings indicate a more susceptible organism, high ones a less susceptible organism.

The subject of assay [1] is efflux pump of PA-038blaNDM. Put plainly: Inhibition of efflux pumps: EtBr accumulation/efflux. It counts as cell-based, Pseudomonas aeruginosa. Conditions: 8 mg/L of compound. On the procedure:
The accumulation of EtBr inside the NDM-producing (PA-038blaNDM) P. aeruginosa clinical isolates was monitored as previously described. Briefly, the P. aeruginosa strain was grown in 5 mL of LB medium until it reached the mid-log phase, and the bacteria were centrifuged at 3500 rpm for 15 min. The resulting pellet was washed twice with an equal volume of PBS. The concentration of the bacterial suspension was adjusted (OD600 = 0.3) and added to each well of a flat-bottomed 96-well black plate ([…]). After the addition of glucose (4 µL) to the cellular suspension at a final concentration of 0.4% (w/v), 4 µL of the title compound or positive control CCCP was added to the plate. Finally, EtBr (10 µL) was also added to each well at a final concentration of 1 µg/mL, and the plate was incubated at 37 °C for 60 min, during which time fluorescence emission from EtBr was recorded (λex 480 nm/λem 630 nm) with a 2-min interval, using a Cytation 5 imaging multi-mode reader (BioTek Instruments, Inc., Winooski, VT, USA).

A further assay deals with ESBLs. The arrangement: method as in PMID 32843653. The note with it: cited from earlier work.
The subject of assay [2] is MBL-producing P. aeruginosa clinical isolates. Put plainly: Broth microdilution checkerboard synergy assay (MIC of ATM in combination). The format is cell-based, Pseudomonas aeruginosa. Conditions: for concentration at which ATM-potentiating activity was observed: four representative MBL-producing P. aeruginosa strains (Table 2); for MIC of ATM, alone or in combination: Table 4; for MIC Value of ATM, alone or in combination with ARMA: Table 2. Background: Broth dilution looks for growth in wells or tubes with falling amounts of substance.

The next assay deals with T1, OXA-48 (Klebsiella pneumoniae, UniProt Q6XEC0).
T1 construct: Genes encoding OXA-48 (residues 23–265) and VIM-2 (residues 27–266) were custom-synthesized; made in house
T1 sequence (Q6XEC0 23-265 limits assumed): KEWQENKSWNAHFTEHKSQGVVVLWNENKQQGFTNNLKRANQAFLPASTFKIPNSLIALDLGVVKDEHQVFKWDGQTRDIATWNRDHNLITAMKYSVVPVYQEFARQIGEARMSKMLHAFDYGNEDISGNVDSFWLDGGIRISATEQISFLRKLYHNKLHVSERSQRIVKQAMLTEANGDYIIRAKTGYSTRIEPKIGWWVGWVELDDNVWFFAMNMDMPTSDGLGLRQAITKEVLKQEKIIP
Description: β-lactamase inhibition, nitrocefin hydrolysis. The format is biochemical. Conditions: nitrocefin substrate; read-out: β-Lactamases, IC50 OXA-48. An excerpt:
(§1) Recombinant AmpC from Escherichia coli was produced according to a previously reported protocol. KPC-2 and NDM-1 […] were purchased from LifeSpan Biosciences, Inc. (Lynnwood, WA, USA) (LS-G26598) and RayBiotech, Inc. (Peachtree Corners, GA, USA) (230-00554), respectively. Genes encoding OXA-48 (residues 23–265) and VIM-2 (residues 27–266) were custom-synthesized (Bioneer Inc., Seoul, Republic of Korea) and expressed as previously described. The β-lactamase inhibitory activity of the title compounds was then determined according to the previously reported methods. Briefly, equal volumes (100 μL) of the title compounds (70–0.1 μM in PBS) and diluted enzyme stock were mixed (final concentration 2% of DMSO in 200 μL) in 96-well plates, which were then incubated at 37 °C for 20 min. The incubated mixture was added to each well containing substrates (nitrocefin for AmpC, KPC-2, OXA-48, and VIM-2; and imipenem for NDM-1) of final concentrations of 70 μM for nitrocefin and 100 μM for imipenem. Substrate hydrolysis was monitored at 486 nm (nitrocefin) or 300 nm (imipenem) for 15 min, using a Cytation 5 imaging multimode reader (BioTek Instruments Inc., Winooski, VT, USA). At the plateau level of hydrolysis, the corresponding rates of hydrolysis were compared to those obtained without inhibitors (100%) to determine the percentage of enzyme inhibition at each concentration of the title compounds. The IC50 values of the compounds were derived from sigmoidal dose–response curves, using GraphPad Prism 5 (GraphPad Software, Boston, MA, USA).

A further assay has as its target T2, VIM-2 (Escherichia coli, UniProt Q5U7L7).
T2 construct: Genes encoding OXA-48 (residues 23–265) and VIM-2 (residues 27–266) were custom-synthesized; made in house
Put plainly: β-lactamase inhibition, nitrocefin hydrolysis. The format is biochemical. Conditions: nitrocefin substrate; read-out: β-Lactamases, IC50 VIM-2.
Text: as §1

The target of a further assay is T3, AmpC (Escherichia coli, UniProt P00811).
T3 construct: made in house
T3 sequence (P00811 20-377): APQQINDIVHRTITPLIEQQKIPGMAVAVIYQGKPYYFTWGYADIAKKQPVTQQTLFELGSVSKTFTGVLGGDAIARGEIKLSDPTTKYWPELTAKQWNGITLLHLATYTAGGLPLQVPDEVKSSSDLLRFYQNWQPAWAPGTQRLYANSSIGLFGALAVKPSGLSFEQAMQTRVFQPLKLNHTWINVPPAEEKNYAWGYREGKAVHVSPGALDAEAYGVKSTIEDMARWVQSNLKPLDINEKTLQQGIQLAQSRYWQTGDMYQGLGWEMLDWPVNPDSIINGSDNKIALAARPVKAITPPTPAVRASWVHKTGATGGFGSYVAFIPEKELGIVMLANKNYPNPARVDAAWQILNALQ
Put plainly: β-lactamase inhibition, nitrocefin hydrolysis. The format is biochemical.
Text: as §1

The next assay deals with T4, KPC-2 (Klebsiella pneumoniae, UniProt Q9F663).
T4 construct: purchased LifeSpan Biosciences, Inc. LS-G26598
T4 sequence (Q9F663 25-293, looked up): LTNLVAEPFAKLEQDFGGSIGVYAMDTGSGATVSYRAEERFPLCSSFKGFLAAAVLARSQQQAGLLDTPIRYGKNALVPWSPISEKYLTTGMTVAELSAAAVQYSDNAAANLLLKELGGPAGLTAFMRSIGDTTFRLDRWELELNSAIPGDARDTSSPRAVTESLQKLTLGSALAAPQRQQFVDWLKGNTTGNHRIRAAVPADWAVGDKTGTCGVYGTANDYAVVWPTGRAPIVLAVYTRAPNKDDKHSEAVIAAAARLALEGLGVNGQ
Description: β-lactamase inhibition, nitrocefin hydrolysis. The format is biochemical. The note with it: nitrocefin substrate; read-out: β-Lactamases, IC50 KPC-2.
Text: as §1

Another assay addresses T5, NDM-1 (Klebsiella pneumoniae, UniProt C7C422).
T5 construct: purchased RayBiotech, Inc. 230-00554
Description: β-lactamase inhibition, imipenem hydrolysis. It counts as biochemical. The note with it: imipenem substrate; read-out: β-Lactamases, IC50 NDM-1.
Text: as §1

Assay [3] has as its system MBL-producing P. aeruginosa clinical isolates. Description: MIC by broth microdilution (CLSI). The format is cell-based, Pseudomonas aeruginosa. The note with it: for MIC: Pseudomonas aeruginosa. As to the method: The DMSO stock solutions of the test compounds were serially diluted to the desired concentrations in CAMHB. Then, 10 μL of the bacterial suspension (5 × 10^5 colony forming units (CFU)/mL) was combined with 200 μL of DMSO stock solutions of the test compounds in 96-well microtiter plates (1% DMSO, final). After the incubation of the plate at 37 °C for 24 h, bacterial growth was visibly evaluated by monitoring the turbidity of the resulting suspension, and the MICs were determined as the lowest concentrations of the test compounds that inhibited the visible growth of the bacteria.

The subject of assay [4] is MBL-producing P. aeruginosa static biofilms. Put plainly: Anti-biofilm activity, crystal violet staining. It counts as cell-based, Pseudomonas aeruginosa. Conditions: for Biofilm biomass (OD600): 27 32 mg/L. The source says:
inhibitor 27 against MBL-producing P. aeruginosa clinical isolates.
1 Biofilm biomass was quantified by crystal violet staining at OD600.2 %-inhibition of biofilm

T5 sequence (C7C422 29-270, looked up, species assumed): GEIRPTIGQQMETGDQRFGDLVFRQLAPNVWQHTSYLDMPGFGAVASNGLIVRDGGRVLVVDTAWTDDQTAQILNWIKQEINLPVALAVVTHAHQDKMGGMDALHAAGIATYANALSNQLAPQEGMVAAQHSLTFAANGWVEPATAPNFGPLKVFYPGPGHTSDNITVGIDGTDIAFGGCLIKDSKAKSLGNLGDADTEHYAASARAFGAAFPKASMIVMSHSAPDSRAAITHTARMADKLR

Take `N#CC(C#N)=NNc1cccc(Cl)c1` [CCCP, carbonyl cyanide 3-chlorophenylhydrazone]: the “EtBr fluorescence (accumulation)” value in assay [1] is “became stronger”.

As to `O=c1c(O)c(-c2ccc(F)c(F)c2)oc2cc(O)cc(O)c12` [Compound 1, 3′,4′-difluoroquercetin], in [1], the “EtBr fluorescence (accumulation)” value is listed as “as potent as CCCP”. In addition, the “inhibition of ESBLs” value with ESBLs was “not to inhibit ESBLs”. Besides, the “concentration at which ATM-potentiating activity was observed” value in [2] lay in the range of 8 to 16 mg/L. Besides, the pIC50 is < 4.00 at OXA-48; < 4.00 at VIM-2; < 4.30 at AmpC; < 4.30 at KPC-2; < 4.30 at NDM-1.

With `CC(C)(C)CCOc1c(-c2ccc(F)c(F)c2)oc2cc(O)cc(O)c2c1=O` [Compound 23], the “EtBr fluorescence (accumulation)” value in assay [1] was “significant increase in EtBr accumulation”. Further, the negative-log IC50 (pIC50) on OXA-48 is 4.83; at VIM-2 it was 4.92; against AmpC it was 4.72; on KPC-2 it was 4.76; on NDM-1, 4.94.

Take `O=c1c(OCCC2CCCC2)c(-c2ccc(F)c(F)c2)oc2cc(O)cc(O)c12` [Compound 26]: the “EtBr fluorescence (accumulation)” value in assay [1] is listed as “significant increase in EtBr accumulation”. For the same compound, the pIC50 is 5.10 on OXA-48; 5.05 at VIM-2; 4.68 at AmpC; 4.94 at KPC-2; 4.80 at NDM-1.

As for `O=c1c(OCCC(F)(F)F)c(-c2ccc(F)c(F)c2)oc2cc(O)cc(O)c12` [Compound 22], the pIC50 on OXA-48 was 4.40; on VIM-2 it was < 4.00; against AmpC it was < 4.30; at KPC-2, < 4.30; on NDM-1, < 4.30.

Take `NC(=O)[C@@H]1CC[C@@H]2CN1C(=O)N2OS(=O)(=O)O` [AVI, avibactam]: the “concentration at which ATM-potentiating activity was observed” value in assay [2] stood at 128 mg/L.

As for `C[C@H]1[C@H](NC(=O)/C(=N\OC(C)(C)C(=O)O)c2csc(N)n2)C(=O)N1S(=O)(=O)O` [ATM, aztreonam], the “ATM MICs relative to the CLSI antibiotic susceptibility breakpoint (1 mg/L)” value in assay [3] (21 MBL-producing P. aeruginosa strains) is reported as 8–64 times higher. For the same compound, the minimum inhibitory concentration (MIC) in [3] (PA-001, blaNDM) is 32 µg/mL (≈ 73.5 µM); in [3] (PA-002, blaIMP), 64 µg/mL (≈ 147 µM); in [3] (PA-007, blaNDM) it was 16 µg/mL (≈ 36.7 µM); in assay [3] (PA-008, blaNDM), 16 µg/mL (≈ 36.7 µM); in assay [3] (PA-011, blaNDM) it was 16 µg/mL (≈ 36.7 µM); in assay [3] (PA-012, blaNDM) it was 16 µg/mL (≈ 36.7 µM). In addition, the MIC in assay [3] (PA-016, blaIMP) was found to be 64 µg/mL (≈ 147 µM); in assay [3] (PA-017, blaNDM), 16 µg/mL (≈ 36.7 µM); in assay [3] (PA-019, blaNDM), 16 µg/mL (≈ 36.7 µM); in [3] (PA-020, blaNDM), 16 µg/mL (≈ 36.7 µM); in assay [3] (PA-023, blaNDM) it was 16 µg/mL (≈ 36.7 µM); in assay [3] (PA-025, blaNDM), 16 µg/mL (≈ 36.7 µM). Moreover, the MIC in assay [3] (PA-027, blaIMP) is 32 µg/mL (≈ 73.5 µM); in assay [3] (PA-028, blaNDM) it was 8 µg/mL (≈ 18.4 µM); in [3] (PA-029, blaIMP), 64 µg/mL (≈ 147 µM); in assay [3] (PA-030, blaIMP), 64 µg/mL (≈ 147 µM); in [3] (PA-034, blaNDM) it was 16 µg/mL (≈ 36.7 µM); in [3] (PA-036, blaNDM) it was 16 µg/mL (≈ 36.7 µM). The MIC was 16 µg/mL (≈ 36.7 µM) in assay [3] (PA-038, blaNDM); 16 µg/mL (≈ 36.7 µM) in assay [3] (PA-039, blaNDM); 16 µg/mL (≈ 36.7 µM) in assay [3] (PA-044, blaNDM). The “inhibition of biofilm formation” value in assay [4] (1/2 × MIC ATM alone) is listed as “no significant inhibition of biofilm formation”. The “Biofilm biomass (OD600)” value in [4] (PA-007, blaNDM, ATM 1/2 MIC (8 mg/L)) is 1.03; in [4] (PA-011, blaNDM, ATM 1/2 MIC (8 mg/L)) it was 0.51; in assay [4] (PA-012, blaNDM, ATM 1/2 MIC (8 mg/L)), 0.23; in [4] (PA-030, blaIMP, ATM 1/2 MIC (32 mg/L)), 1.84. Moreover, the “MIC of ATM, alone or in combination” value in assay [2] (PA-001, blaNDM) stood at 32 µg/mL; in assay [2] (PA-002, blaIMP) it was 64 µg/mL; in assay [2] (PA-007, blaNDM) it was 16 µg/mL; in [2] (PA-008, blaNDM) it was 16 µg/mL; in assay [2] (PA-011, blaNDM), 16 µg/mL; in assay [2] (PA-012, blaNDM), 16 µg/mL. For the same compound, the “MIC of ATM, alone or in combination” value in [2] (PA-016, blaIMP) amounted to 64 µg/mL; in assay [2] (PA-017, blaNDM), 16 µg/mL; in assay [2] (PA-019, blaNDM) it was 16 µg/mL; in [2] (PA-020, blaNDM) it was 16 µg/mL; in assay [2] (PA-023, blaNDM), 16 µg/mL; in assay [2] (PA-025, blaNDM), 16 µg/mL. Further, the “MIC of ATM, alone or in combination” value in [2] (PA-027, blaIMP) came out at 32 µg/mL; in [2] (PA-028, blaNDM) it was 8 µg/mL; in assay [2] (PA-029, blaIMP) it was 64 µg/mL; in assay [2] (PA-030, blaIMP), 64 µg/mL; in assay [2] (PA-034, blaNDM) it was 16 µg/mL; in [2] (PA-036, blaNDM), 16 µg/mL. Besides, the “MIC of ATM, alone or in combination” value is 16 µg/mL in assay [2] (PA-038, blaNDM); 16 µg/mL in assay [2] (PA-039, blaNDM); 16 µg/mL in assay [2] (PA-044, blaNDM). Further, the “MIC Value of ATM, alone or in combination with ARMA” value in [2] (PA-002, blaIMP) stood at 64 µg/mL; in [2] (PA-003, blaVIM) it was 32 µg/mL; in [2] (PA-025, blaNDM), 16 µg/mL; in assay [2] (PA-038, blaNDM) it was 16 µg/mL.
